One data set concerns BT-549. The data set can be described thus: Antiproliferative activity against human BT-549 cells assessed as reduction in cell viability incubated for 48 hrs by MTT assay. The following applies: BT-549, 48 h. In kind it is functional, cell-based. (In general: Tetrazolium assays rely on reduction of a dye to a coloured formazan, in cell work by metabolically active cells.)
The subject of the next data set is HL-60. The data set can be described thus: Growth inhibition of human HL-60 cells assessed as cell growth inhibition measured after 48 hrs by MTT assay. It is filed as functional.
The subject of data set [1] is Plasmodium falciparum. The data set is described as follows: Antimalarial activity against Plasmodium falciparum HB3 assessed as inhibition of malarial growth. It is filed as functional, organism-based.
The test system of data set [2] is Plasmodium falciparum. The data set is described as follows: Antimalarial activity against Plasmodium falciparum K1 assessed as inhibition of malarial growth. It is filed as functional, organism-based.
In the next data set the test system is Jurkat. The data set can be described thus: Antiproliferative activity against human Jurkat cells assessed as reduction in cell viability incubated for 48 hrs by MTT assay. It is filed as functional, cell-based.
Data set [3] relates to Plasmodium falciparum. The data set is described as follows: Antimalarial activity against Plasmodium falciparum NF54 assessed as inhibition of cell growth incubated for 72 hrs by SYBR Green I staining based fluorescence analysis. The following applies: NF54, 72 h. In kind it is functional, organism-based.
The subject of data set [4] is Plasmodium falciparum. The data set can be described thus: microbe, parasite or virus in culture. The following applies: Dd2.
Description: Antiplasmodial activity against Plasmodium falciparum Dd2 assessed as inhibition of parasitic growth
Another data set concerns SK-MEL-2. The data set is described as follows: Antiproliferative activity against human SK-MEL-2 cells assessed as reduction in cell viability incubated for 48 hrs by MTT assay. In kind it is functional, cell-based. Conditions: SK-MEL-2, 48 h.
The next data set relates to C2D cell line. The data set is described as follows: Cytotoxicity against mouse C2D cell line assessed as inhibition of cell growth measured after 72 hrs by MTT assay. In kind it is functional, cell-based.
A further data set relates to TRAMP-C2H. The data set can be described thus: Cytotoxicity against mouse TRAMP-C2H cells assessed as inhibition of cell growth measured after 72 hs by MTT assay. In kind it is functional, cell-based.
Another data set has as its system C2G cell line. The data set can be described thus: Cytotoxicity against mouse C2G cells assessed as inhibition of cell growth measured after 72 hrs by MTT assay. In kind it is functional, cell-based.
The next data set relates to TRAMP-C1A. The data set can be described thus: Cytotoxicity against mouse TRAMP-C1A cells assessed as inhibition of cell growth measured after 72 hrs by MTT assay. It is filed as functional, cell-based.
Data set [5] has as its system Plasmodium falciparum. The data set can be described thus: Antimalarial activity against Plasmodium falciparum NF54 assessed as reduction in cell growth. It is filed as functional, organism-based.
A further data set has as its system HeLa. The data set can be described thus: Antiproliferative activity against human Hela cells assessed as cell growth inhibition measured after 48 hrs by MTT assay. In kind it is functional, cell-based.
The nature of data set [6]: Antiproliferative activity against human 1205Lu cells assessed as reduction in cell growth. It is filed as functional, cell-based.
Another data set has as its system HCT-116. The data set is described as follows: Antiproliferative activity against human HCT-116 cells assessed as growth after 48 hrs by MTT assay. It is filed as functional, cell-based. The following applies: HCT-116, 48 h.
Data set [7] in a line: Cytotoxicity against human HFF cells assessed as cell growth inhibition measured after 48 hrs by MTT assay. It is filed as toxicity, cell-based.

The term IC50 denotes the point on the concentration scale where inhibition reaches its midpoint. For orientation: GI50 means the concentration at which growth is held to half of that of the control.

For `C[C@@H]1CC[C@H]2[C@@H](C)C(OCC(O)COC3O[C@@H]4O[C@]5(C)CC[C@@H]6[C@@H](C)CC[C@H]([C@@H]3C)[C@]46OO5)O[C@H]3O[C@@]4(C)CC[C@@H]1[C@]32OO4` (stereo partly specified), in the data set on BT-549, the IC50 stood at 480 nM.
Consider `COP(=O)(OCCCC1O[C@H]2O[C@@]3(C)CC[C@H]4[C@H](C)CC[C@@H]([C@H]1C)[C@@]24OO3)OCCC1O[C@H]2O[C@@]3(C)CC[C@H]4[C@H](C)CC[C@@H]([C@H]1C)[C@@]24OO3` (stereo partly specified), for which the GI50 with HL-60 was found to be 143 nM. The IC50 in the data set with Plasmodium falciparum [1] was 0.09 nM; with Plasmodium falciparum [2], 0.2 nM; with Jurkat it was 7700 nM.
Regarding `C[C@H]1[C@@H](CC(F)(F)c2ccc(C(F)(F)C[C@H]3O[C@H]4O[C@@]5(C)CC[C@H]6[C@H](C)CC[C@@H]([C@H]3C)[C@@]46OO5)cc2)O[C@H]2O[C@@]3(C)CC[C@H]4[C@H](C)CC[C@@H]1[C@@]24OO3`, in the data set with Plasmodium falciparum [3], the half-inhibitory concentration (IC50) was 28 nM.
In the data set on Plasmodium falciparum [4], `C[C@@H]1CC[C@H]2[C@@H](C)C(O)O[C@H]3O[C@]4(C)CC[C@@H]1[C@]32O4` (stereo partly specified) had an IC50 of 2730 nM.
As to `C[C@@H]1CC[C@H]2[C@@H](C)C(CCN3CCC(C4CCN(CCC5O[C@H]6O[C@@]7(C)CC[C@H]8[C@H](C)CC[C@@H]([C@H]5C)[C@@]68OO7)CC4)CC3)O[C@H]3O[C@@]4(C)CC[C@@H]1[C@]32OO4` (stereo partly specified), the concentration for 50% growth inhibition (GI50) with HL-60 is 400 nM.
For `C[C@@H]1CC[C@H]2[C@@H](C)C(CCCOP(=O)(OCCC3O[C@H]4O[C@@]5(C)CC[C@H]6[C@H](C)CC[C@@H]([C@H]3C)[C@@]46OO5)Oc3ccccc3)O[C@H]3O[C@@]4(C)CC[C@@H]1[C@]32OO4` (stereo partly specified), the GI50 in the data set with HL-60 amounted to 241 nM. The IC50 with Plasmodium falciparum [1] amounted to 0.18 nM; in the data set on Plasmodium falciparum [2] it was 0.5 nM; in the data set on Jurkat it was 13200 nM.
Consider `C[C@@H]1CC[C@H]2[C@@H](C)C(OCC(=O)COC3O[C@@H]4O[C@]5(C)CC[C@@H]6[C@@H](C)CC[C@H]([C@@H]3C)[C@]46OO5)O[C@H]3O[C@@]4(C)CC[C@@H]1[C@]32OO4` (stereo partly specified), for which the IC50 in the data set on SK-MEL-2 was 560 nM.
Regarding `C[C@@H]1CC[C@H]2[C@@H](C)C(CC(COC(=O)c3cc[n+]([O-])cc3)CC3O[C@H]4O[C@@]5(C)CC[C@H]6[C@H](C)CC[C@@H]([C@H]3C)[C@@]46OO5)O[C@H]3O[C@@]4(C)CC[C@@H]1[C@]32OO4` (stereo partly specified), the IC50 in the data set on C2D cell line was 62.1 nM; in the data set with TRAMP-C2H, 36.1 nM; in the data set with C2G cell line, 47.4 nM; in the data set on TRAMP-C1A, 84.6 nM; with Plasmodium falciparum [5], 0.53 nM.
As for `Nc1ccn([C@@H]2O[C@H](CO)[C@@H](O)C2(F)F)c(=O)n1` [GEMCITABINE], the 50% inhibitory concentration (IC50) in the data set with C2D cell line, with TRAMP-C2H, in the data set with C2G cell line and with TRAMP-C1A was 3.7 nM in each case.
For the compound `C[C@H]1[C@H](CC(F)(F)c2ccc(C(F)(F)C[C@H]3O[C@H]4O[C@@]5(C)CC[C@H]6[C@H](C)CC[C@@H]([C@H]3C)[C@@]46OO5)cc2)O[C@H]2O[C@@]3(C)CC[C@H]4[C@H](C)CC[C@@H]1[C@@]24OO3`, the 50% inhibitory concentration (IC50) in the data set with Plasmodium falciparum [3] was 15 nM.
Consider `C[C@@H]1CC[C@H]2[C@@H](C)C(CC(CC3O[C@@H]4O[C@]5(C)CC[C@@H]6[C@@H](C)CC[C@H]([C@@H]3C)[C@]46OO5)CS(=O)(=O)c3ccc(COC(=O)N(C)C)cc3)O[C@H]3O[C@@]4(C)CC[C@@H]1[C@]32OO4` (stereo partly specified), for which the half-maximal inhibitory concentration (IC50) came to 270 nM in the data set on HeLa, 130 nM in data set [6] and 70 nM in the data set on HCT-116. The half-inhibitory concentration (IC50) at 48 h in data set [7] was determined as 57500 nM.
Turning to `C[C@@H]1CC[C@H]2[C@@H](C)C(CC(CC3O[C@@H]4O[C@]5(C)CC[C@@H]6[C@@H](C)CC[C@H]([C@@H]3C)[C@]46OO5)C(=O)O)O[C@H]3O[C@@]4(C)CC[C@@H]1[C@]32OO4` (stereo partly specified), the half-inhibitory concentration (IC50) was 231 nM in the data set on C2D cell line, 134 nM in the data set with C2G cell line, 159 nM in the data set on TRAMP-C1A and 2.4 nM in the data set on Plasmodium falciparum [5].
